Assay results: PMC5756575, “In Vitro Biotransformation, Safety, and Chemopreventive Action of Novel 8-Methoxy-Purine-2,6-Dione Derivatives” (Applied Biochemistry and Biotechnology, 2017)
Like-named read-outs stand apart in the source and are kept apart here.

How the values were obtained:
[1] = tested on: Vibrio harveyi BB7M; assay: Vibrio harveyi antimutagenicity assay against NQNO, BB7M; type: cell-based; settings: compound 40 ng/mL + NQNO 40 ng/mL; for Number of revertants per plate, Mean ± SD: antimutagenicity, NQNO line = NQNO as a single compound
Excerpt: Four Vibrio harveyi strains were used in this study: a wild-type BB7 (naturally found in the Baltic Sea) and three genetically modified strains, namely BB7M (obtained by the introduction of pAB1273 plasmid containing the genes mucA and mucB to enhance the error-prone DNA repair), BB7X (hypersensitive to UV radiation after genetic modification with Tn5TpMCS), and BB7XM (containing the two abovementioned modifications). These strains were kindly provided by Prof. G. Węgrzyn (Department of Molecular Biology, University of Gdańsk, Poland).
It causes point mutations at the genome as it induces G:C → A:T transitions in Vibrio harveyi strains and in other bacteria such as Escherichia coli and S. typhimurium. […] Next, its working solution was prepared in sterile water, being 40 ng/mL its final concentration.
Procedure followed in the V. harveyi antimutagenicity assay was similar to the mutagenicity method described before. […] The results were expressed as the inhibition percentage of mutagenic effect, which was calculated with the formula: 100 − [(R 1/R 2) × 100], where R 1 is the number of revertants per plate in the presence of both mutagen and tested substance, and R 2 is the number of revertants per plate in the presence of mutagen. […] S. typhimurium antimutagenicity assay was based on similar assumptions as the V. harveyi antimutagenicity test. In this case, the chemopreventive activity was determined at two concentrations of a tested compounds and a standard mutagen, i.e., 40 and 500 ng/mL.

[2] = tested on: Salmonella typhimurium TA100; assay: Ames mutagenicity test; type: cell-based
Protocol: From them, 0.2 mM working solutions were prepared by dilution with water. […]
In the Ames test, Salmonella typhimurium TA100 strain was used. This strain has a base-pair substitution that can be reverted by mutations at GC pairs. In addition, it contains mutations at uvrB-bio and rfa genes to eliminate excision repair mechanisms and to make the bacteria more permeable to chemicals, respectively. Finally, TA100 also includes pKM101 plasmid, which enhances both chemical and UV-induced mutagenesis via an increase in the error-prone recombinational DNA repair pathway. TA100 strain of S. typhimurium was provided by Dr. T. Nohmi (Division of Genetics and Mutagenesis, National Institute of Hygienic Sciences, Tokyo, Japan). V. harveyi and S. typhimurium bacterial cultures were maintained at 30 and 37 °C, respectively.
It causes point mutations at the genome as it induces G:C → A:T transitions in Vibrio harveyi strains and in other bacteria such as Escherichia coli and S. typhimurium. […]
S. typhimurium was cultivated in a fresh medium 12 h prior to a test. To perform mutagenicity assay, 100 μL of an overnight culture (containing approx. 1 × 10^8 to 2 × 10^8 bacteria) were inoculated along with 50 μL of a tested compound in 2 mL of top agar supplemented with traces of histidine and of biotin. Then the mixture was added over the surface of GM agar plates and was left incubating 48 h at 37 °C. Afterwards, the colonies were counted manually.

[3] = tested on: Cunninghamella elegans 1906 DMS; assay: Cunninghamella biotransformation assay, C. elegans; type: in vitro ADME; settings: 7-day incubation; for % of compound/metabolite in C. elegans: 0.5 mg/mL, LC-MS/MS; for % of tested (parental) compound metabolized at the end of experiment: C. elegans
Protocol: Three different strains of Cunninghamella were used: Cunninghamella echinulata NRRL 1384, Cunninghamella blakesleeana 1908 DMS, and Cunninghamella elegans 1906 DMS. The first was provided by Dr. A.J. Carnell (University of Liverpool, UK), whereas the two remaining were purchased from Deutsche Sammlung von Mikroorganismen und Zellkulturen GmbH (DMSZ, Braunschweig, Germany).
Cunninghamella strains were cultivated on solid potato dextrose agar (PDA) plates at 28 °C. After 4 days, a liquid fermentation basal medium was prepared by the addition of 6 g of D-glucose, 1.5 g of NaCl, 1.5 g of yeast extract from Saccharomyces cerevisiae, and 1.5 g of K2HPO4 to 300 mL of distilled water. Aliquots of 24.5 mL of medium were inoculated with 300 μL of suspension of fungal spores obtained after wetting colonies in PDA. The fungi were incubated with shaking until the formation of spherical clumps.
Compounds 2–4 were evaluated in this experiment. Once microorganisms formed spherical clumps in the preliminary incubation, the corresponding tested compound was added to the broth and the mixture was incubated for 7 days. Two control experiments were also performed, in the absence of compound and fungus, respectively. Biotransformation progress was monitored by TLC and by liquid chromatography electrospray ionization-tandem mass spectrometry (LC-MS/MS). Monitoring was performed at four different incubation times: 30 min, 3 days, 5 days, and 7 days.
To analyze metabolites in LC-MS/MS, an aliquot of 500 μL of filtered sample was taken and extracted with 500 μL of dichloromethane. The organic fraction was dried with sodium sulfate, filtered, and evaporated. The obtained residue was analyzed in LC-MS/MS. At the end of experiment, all the remaining medium was extracted with 25 mL of dichloromethane after separating the fungal clumps by filtration over cellulose filters.
(§1) Agilent 1100 HPLC system (Agilent Technologies, Waldbronn, Germany) equipped with a Xbridge™ C18 analytical column (2.1 × 30 mm, […]; Waters, Dublin, Ireland) was used in the chromatographic separation of LC-MS/MS analysis. An elution gradient of acetonitrile and water, with 0.1% of formic acid, was used as a mobile phase. MS spectra were taken at Applied Biosystems MDS Sciex API 200 triple quadrupole mass analyzer (Concord, Ontario, Canada) with an electrospray ionization (ESI) interface between HPLC and MS.

[4] = Microsomal stability assay; type: in vitro ADME, rat; settings: pH 7.4, rat liver microsomes, 20 μM, 0.4 mg/mL protein
Protocol: Compounds 1 and 3 were studied in a biotransformation assay using rat liver microsomes following procedures described previously. The reagents used in this assay were levallorphan (internal standard) and NADPH-regenerating system, which contained phosphate buffer (pH 7.4), NADP^+, glucose-6-phosphate, and glucose-6-phosphate dehydrogenase. The final protein concentration in the assay was 0.4 mg/mL. Compounds 1 and 3 were tested at a final concentration of 20 μM.
The amount of a parental compound remaining in a solution after biotransformation was monitored using LC-MS/MS as described previously in “Cunninghamella Biotransformation Assay.” Graphs representing ln of percentage of parent compound remaining versus incubation time were drawn to calculate in vitro half-time (t1/2) from the slope of linear regression. To obtain intrinsic clearance (Clint) of a tested compound in rat liver microsomal assay, t1/2 previously calculated was substituted at the equation Clint = [(Vmic/Pmic) × 0.693/t1/2], being Vmic and Pmic the volume of incubation in microliters and the amount of incubated protein in milligrams, respectively.
as §1

[5] = tested on: mice; design: method as in PMID 25443727, PMID 25560569; settings: writhing syndrome test in mice; cited from earlier work
[6] = tested on: mice; design: method as in PMID 25443727, PMID 25560569; settings: formalin test in mice; cited from earlier work
[7] = TA100, 40 ng/mL, mutagenic if MI >2.0
[8] = TA100, 500 ng/mL (NQNO control stated as 40 ng/mL in method)

| SMILES | Number of revertants per plate, Mean ± SD [1] | % inhibition of NQNO mutagenicity [1] | Number of revertants per plate, Mean ± SD ([2]; TA100, 40 ng/mL) | MI (mutagenicity index) [2, 7] | MI (mutagenicity index) [2, 8] | Number of revertants per plate, Mean ± SD [2, 8] | % of compound/metabolite in C. elegans [3] | % of tested (parental) compound metabolized at the end of experiment [3] | half-life at 20 μM ([4]; read-out: in vitro half-time (t1/2)) | microsomal CLint at 20 μM ([4]; read-out: intrinsic clearance (Clint)) | fold higher activity than acetylsalicylic acid [5] | fold higher activity than acetylsalicylic acid [6] |
| --- | --- | --- | --- | --- | --- | --- | --- | --- | --- | --- | --- | --- |
| COc1nc2c(c(=O)n(C)c(=O)n2C)n1CCCC(=O)NCc1ccccc1 [Compound 3, N-benzyl-4-(8-methoxy-1,3-dimethyl-2,6-dioxo-purin-7-yl)butanamide] | 48 ± 8 | 50% | 53 ± 11 | 1.5 | 0.2 | 6 ± 3 | 99.4% | 0.6% | 17.7 min | 97.9 µL/min/mg |  |  |
| COc1nc2c(c(=O)n(C)c(=O)n2C)n1CCCC(=O)N1CCN(c2ccccc2)CC1 [Compound 4, 8-methoxy-1,3-dimethyl-7-[4-oxo-4-(4-phenylpiperazin-1-yl)butyl]purine-2,6-dione] | 50 ± 9 | 49% | 48 ± 7 | 1.3 | 0.4 | 10 ± 1 | 47.0% | 53.0% |  |  | 23 fold | 36 fold |
